# Test results taken from US20030220309A1, “17-methylenandrostan-3alpha-ol analogs as CRH inhibitors” (Pherin Pharmaceuticals, Inc., priority 2001, published 2003).
# Assays:
# [1] = system: normal adult male and female human volunteers; assay: Power spectral analysis of electroencephalograms after vomeronasal administration; assay type: in vivo; settings: 400 pg to the vomeronasal organ
# Method: (§1) 17-Methylenandrost-4-en-3α-ol, 400 pg, or placebo were administered to the vomeronasal organs of normal adult male and female human volunteers using a delivery device which delivered the compound to the opening of the vomeronasal organ in measured quantity (two 2 second “puffs” of a 10^−8 M solution of the active ingredient in propylene glycol, or propylene glycol alone). The study evaluations included objective and subjective evaluations of sleep, a power spectral analysis of the subjects' electroencephalograms, and a pencil-and-paper self-report inventory (ABS-70) of the subjects' effective state.
# Based on this study, 17-methylenandrost-4-en-3α-ol shares antidepressant and stimulant properties with paroxetine and other selective serotonin reuptake inhibitor antidepressants.
# [2] = system: norepinephrine and serotonin; assay: Neurotransmitter concentrations in blood and metabolites in urine; assay type: in vivo; settings: relative to placebo, human volunteers
# Method: as §1
# (§2) 17-Methylenandrost-4-en-3α-ol also reduces plasma concentrations of ACTH and cortisol, and also reduces cortisol concentration in urine. It also increases, relative to placebo, concentrations of the neurotransmitters norepinephrine and serotonin in blood and their metabolites in urine.
# CRH = assay: ACTH and cortisol concentrations in plasma and urine (indirect measure of CRH inhibition); assay type: in vivo; settings: 400 pg to the vomeronasal organ, human volunteers
# Method: The compounds of this invention are, when administered to the VNO, CRH inhibitors. Their activity as CRH inhibitors in vivo can be measured directly by measurement of the inhibition of CRH or indirectly by the measurement of other hormones, such as ACTH, and steroids, such as cortisol, associated with CRH, as discussed in the Examples.
# as §1, §2
# [3] = system: normal adult male and female human volunteers; assay: Sleep evaluation after administration to the vomeronasal organ of normal human volunteers; assay type: in vivo; parameters: key: increase (↑); decrease (↓); no change (=); settings: 400 pg administered to the VNO before bedtime, normal subjects, males and females combined, change with respect to placebo
# Method: as §1
# The table below provides a comparison of the results from the study with 17-methylenandrost-4-en-3α-ol with literature reports on the effects of the effects of the marketed antidepressant paroxetine (Paxil®); where changes in sleep variables are indicated as an increase (↑), decrease (↓), or no change (=) with respect to placebo.
# Comparative effects of 17-methylenandrost-4-en-3α-ol, 400 pg administered to the VNO, and paroxetine, 30 mg orally, given before bedtime in normal subjects: […]
# [4] = system: normal adult male and female human volunteers; assay: Overall outcome of the vomeronasal study (sleep, EEG, self-report); assay type: in vivo; settings: administration to the vomeronasal organ
# Method: as §1
# normal subjects = system: normal subjects; parameters: key: increase (↑); decrease (↓); no change (=); settings: 30 mg orally before bedtime, change with respect to placebo, from Saletu et al. 1991; cited from earlier work
compound,measurement,setting,value
C=C1CC[C@H]2[C@@H]3CCC4=C[C@H](O)CC[C@]4(C)[C@H]3CC[C@]12C [17-Methylenandrost-4-en-3α-ol],EEG β-wave activity,[1],increased
same,EEG θ-wave activity,[1],increased
same,δ-frequency activity in stages S3 and S4 non-REM sleep,[1],increase
same,concentration of norepinephrine in blood,[2]; blood,increases
same,concentration of serotonin in blood,[2]; blood,increases
same,concentrations of norepinephrine and serotonin metabolites in urine,[2]; urine,increases
same,plasma concentration of ACTH,CRH; plasma,reduces
same,plasma concentration of cortisol,CRH; plasma,reduces
same,cortisol concentration in urine,CRH; urine,reduces
same,REM sleep latency,[3],↑
same,Sleep efficiency,[3],↓
same,Sleep latency,[3],↑
same,Stage 1 sleep time,[3],↑
same,Stage 2 sleep time,[3],↑
same,Stages 3 + 4 sleep time,[3],=
same,Total REM sleep time,[3],↓
same,Total sleep time,[3],↓
same,"overall study result (sleep, EEG, hormones, neurotransmitters)",[4],antidepressant properties
"Fc1ccc([C@@H]2CCNC[C@H]2COc2ccc3c(c2)OCO3)cc1 [Paroxetine, paroxetine]",REM sleep latency,normal subjects,↑
same,Sleep efficiency,normal subjects,↓
same,Sleep latency,normal subjects,↑
same,Stage 1 sleep time,normal subjects,↑
same,Stage 2 sleep time,normal subjects,=
same,Stages 3 + 4 sleep time,normal subjects,=
same,Total REM sleep time,normal subjects,↓
same,Total sleep time,normal subjects,↓
